Measured values: patent publication US5264445A, “(-)-N"-cyano-N-3-pyridyl-N'-1,2,2-trimethylpropylguanidine” (Eli Lilly and Company, priority 1992, dated 1993)

What was measured:
[1] = system: phenylephrine-contracted cephalic veins; assay: Canine cephalic vein assay: relaxing phenylephrine-contracted cephalic veins; assay type: cell-based; details: relaxing phenylephrine-contracted canine cephalic veins in vitro, ±SEM
Procedure: (§1) All six compounds were tested in the Purkinje fiber and canine cephalic vein assays taught by Steinberg et al., Journal of Cardiovascular Pharmacology, 12 (Suppl. 2), S30-S40 (1988). The effective concentration for reducing the Purkinje fiber action potential duration and for relaxing phenylephrine-contracted cephalic veins, respectively, otherwise known as the EC50, was determined for each compound and is reported in Table I.

Purkinje fiber = Purkinje fiber assay: reducing the Purkinje fiber action potential duration; assay type: cell-based; details: reducing canine Purkinje fiber action potential duration in vitro, ±SEM
Procedure: as §1

potassium channels [2] = details: reported by Weston et al., Drugs, 36 (Suppl. 7), 10 (1988); cited from earlier work
[3] = system: spontaneously hypertensive rats; details: cited from earlier work
potassium channels [4] = assay: Potency as potassium channel opener (comparison of isomers); details: compared with its (+) enantiomer, pinacidil, or any of the pinacidil enantiomers
Source text: Pinacidil is currently undergoing clinical trials to determine its antihypertensive potential. By virtue of the branched N-alkyl side chain, pinacidil is a mixture of two enantiomers. Recently, both enantiomers have been prepared and studied -- see, Weston et al., Drugs, 36 (Suppl. 7), 10 (1988).

[5] = Canis lupus familiaris, purkinje

| SMILES | EC50 [1] [nM] | EC50 (Purkinje fiber) [nM] | relative potency of pinacidil enantiomers (potassium channels [2]) | EC50 ([1]; Canis lupus familiaris) [nM] | EC50 (Purkinje fiber; [5]) [nM] | minimal effective dose (MED) to decrease blood pressure [3] [mg/kg] | relative potency as a potassium channel opener (potassium channels [4]) |
| --- | --- | --- | --- | --- | --- | --- | --- |
| CC(NC(=NC#N)Nc1ccncc1)C(C)(C)C (single isomer, unassigned; (-)) [(-)-Pinacidil] | 440 ± 100 | 3200 ± 1200 | more potent than the (+) isomer | – | – | – | – |
| CC(N/C(=N\C#N)Nc1ccncc1)C(C)(C)C (racemic) [(±)-Pinacidil, N"-cyano-N-4-pyridyl-N'-1,2,2-trimethylpropylguanidine] | – | – | – | 760 ± 120 | 3000 ± 1000 | 0.5 | – |
| CC(NC(=NC#N)Nc1cccnc1)C(C)(C)C (single isomer, unassigned; (+)) [(+)-N"-cyano-N-3-pyridyl-N'-1,2,2-trimethylpropylguanidine] | 6410 ± 1800 | 23000 ± 4700 | – | – | – | – | – |
| CC(NC(=NC#N)Nc1ccncc1)C(C)(C)C (single isomer, unassigned; (+)) [(+)-Pinacidil] | 9550 ± 70 | 55000 ± 9600 | – | – | – | – | – |
| CC(NC(=NC#N)Nc1cccnc1)C(C)(C)C (racemic) [N"-cyano-N-3-pyridyl-N'-1,2,2-trimethylpropylguanidine] | – | – | – | 560 ± 140 | 500 ± 30 | 1 | – |
| CC(NC(=NC#N)Nc1cccnc1)C(C)(C)C (single isomer, unassigned; (-)) [(-)-N"-cyano-N-3-pyridyl-N'-1,2,2-trimethylpropylguanidine] | 90 ± 30 | 430 ± 260 | – | – | – | – | considerably more potent |
